The target of one experiment is T1, TRKC-L686M (Homo sapiens, UniProt Q16288, L686M).
T1 construct: purchased Reaction Biology (HotSpot Kinase assay panel)
Nature of the experiment: Reaction Biology HotSpot Kinase assay, direct enzyme phosphorylation. Type of experiment: biochemical. The note with it: Other Mutant TRKC-L686M. The procedure: (§1) Direct enzyme phosphorylation assay. The Reaction Biology HotSpot Kinase assay was used to screen the present invention against a panel of normal TRKA, TRKB, and TRKC and mutated TRK kinases. For assays of all kinases, the TRK enzyme was prepared in base reaction buffer (20 mM Hepes (pH 7.5), 10 mM MgCl2, 1 mM EGTA, 0.02% Brij35, 0.02 mg/ml BSA, 0.1 mM Na3VO4, 2 mM DTT, 1% DMSO). The reaction was initiated by the addition of 33P-ATP (10 μCi/μL) into the mixture. The reaction mixture was incubated for 120 minutes at room temperature. Radioactivity was detected by filter-binding method, and kinase activity expressed as the percent remaining kinase activity in test samples compared to vehicle reactions. IC50 values and curve fitting were obtained using Prism (GraphPad Software).
(§2) The activity of the besylate salt of the present invention was determined using a direct enzymatic Reaction Biology HotSpot Kinase assay. All IC50 values are presented in nanomolar concentration. In the direct enzymatic measurement assay, the IC50 of the besylate salt of the current invention against the various TRK kinases is shown in Table 1.

The next experiment has as its target T2, TRKA-TPR (Homo sapiens, UniProt P04629).
T2 construct: fused on or other part: N-terminal coiled-coil part of TPR (translocated promoter region protein); P12270 (Nucleoprotein TPR)
The experiment is described as above. Type of experiment: biochemical. The note with it: Fusion TRKA-TPR. The procedure:
as §1, §2

A further experiment has as its target T3, TRKA-G667C (Homo sapiens, UniProt P04629, G667C).
T3 construct: purchased Reaction Biology (HotSpot Kinase assay panel)
Described as above. Type of experiment: biochemical. The note with it: xDFG Mutant TRKA-G667C. The procedure:
as §1, §2

In the next experiment the target is T4, TRKA-G667S (Homo sapiens, UniProt P04629, G667S).
T4 construct: purchased Reaction Biology (HotSpot Kinase assay panel)
Described as above. The format is biochemical. The settings on record: xDFG Mutant TRKA-G667S. The procedure:
as §1, §2

The target in a further experiment is T5, TRKA-A608D (Homo sapiens, UniProt P04629, A608D).
T5 construct: purchased Reaction Biology (HotSpot Kinase assay panel)
The description is as above. The format is biochemical. The note with it: Other Mutant TRKA-A608D. The procedure:
as §1, §2

Another experiment concerns the target T6, TRKC-G696A (Homo sapiens, UniProt Q16288, G696A).
T6 construct: purchased Reaction Biology (HotSpot Kinase assay panel)
The description is as above. Type of experiment: biochemical. The settings on record: xDFG Mutant TRKC-G696A. The procedure: as §1, §2

The next experiment concerns the target T7, TRKA-L657M (Homo sapiens, UniProt P04629, L657M).
T7 construct: purchased Reaction Biology (HotSpot Kinase assay panel)
The experiment is described as above. Type of experiment: biochemical. The settings on record: Other Mutant TRKA-L657M. How it is done: as §1, §2

In another experiment the target is T8, TRKA-TFG (Homo sapiens, UniProt P04629).
T8 construct: partner gene encoding one or more dimerization domains with the tyrosine kinase domains of one of the TRK genes; TFG (fusion partner); purchased Reaction Biology (HotSpot Kinase assay panel); the other entry of the earlier key: TFG (Q92734, Protein TFG)
The description is as above. The format is biochemical. The note with it: Fusion TRKA-TFG. How it is done: as §1, §2

The target of the next experiment is T9, TRKA-TPM3 (Homo sapiens, UniProt P04629).
T9 construct: fused on or other part: N-terminal part of tropomyosin 3 (coiled-coil dimerisation part); P06753 (Tropomyosin alpha-3 chain)
Described as above. The format is biochemical. The note with it: Fusion TRKA-TPM3. How it is done: as §1, §2

In experiment [1] the test system is TRK fusion positive cancers. The settings on record: cited from earlier work.

SMILES strings stand for the structures.

T6 sequence (Q16288 32-839 G696A): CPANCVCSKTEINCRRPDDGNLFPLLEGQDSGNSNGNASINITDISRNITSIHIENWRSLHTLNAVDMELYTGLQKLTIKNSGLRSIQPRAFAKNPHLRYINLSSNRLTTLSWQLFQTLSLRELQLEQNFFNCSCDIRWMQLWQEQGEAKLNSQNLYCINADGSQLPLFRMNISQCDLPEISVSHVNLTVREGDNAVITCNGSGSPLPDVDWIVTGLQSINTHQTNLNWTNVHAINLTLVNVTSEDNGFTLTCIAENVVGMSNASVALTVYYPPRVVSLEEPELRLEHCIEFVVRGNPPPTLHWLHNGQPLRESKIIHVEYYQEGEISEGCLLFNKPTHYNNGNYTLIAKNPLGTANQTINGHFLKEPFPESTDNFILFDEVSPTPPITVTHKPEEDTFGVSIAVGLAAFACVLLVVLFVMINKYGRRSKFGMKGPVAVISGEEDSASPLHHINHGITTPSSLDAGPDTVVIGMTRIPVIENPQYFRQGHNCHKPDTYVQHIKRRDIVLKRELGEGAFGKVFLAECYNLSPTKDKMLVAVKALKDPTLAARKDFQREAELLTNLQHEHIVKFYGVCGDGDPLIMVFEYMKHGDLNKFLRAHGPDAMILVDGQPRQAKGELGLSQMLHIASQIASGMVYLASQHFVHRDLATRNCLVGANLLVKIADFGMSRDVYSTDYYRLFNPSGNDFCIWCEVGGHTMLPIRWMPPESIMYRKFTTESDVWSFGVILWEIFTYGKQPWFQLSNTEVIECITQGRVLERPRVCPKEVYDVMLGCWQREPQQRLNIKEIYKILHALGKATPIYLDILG
T5 sequence (P04629 33-796 A608D): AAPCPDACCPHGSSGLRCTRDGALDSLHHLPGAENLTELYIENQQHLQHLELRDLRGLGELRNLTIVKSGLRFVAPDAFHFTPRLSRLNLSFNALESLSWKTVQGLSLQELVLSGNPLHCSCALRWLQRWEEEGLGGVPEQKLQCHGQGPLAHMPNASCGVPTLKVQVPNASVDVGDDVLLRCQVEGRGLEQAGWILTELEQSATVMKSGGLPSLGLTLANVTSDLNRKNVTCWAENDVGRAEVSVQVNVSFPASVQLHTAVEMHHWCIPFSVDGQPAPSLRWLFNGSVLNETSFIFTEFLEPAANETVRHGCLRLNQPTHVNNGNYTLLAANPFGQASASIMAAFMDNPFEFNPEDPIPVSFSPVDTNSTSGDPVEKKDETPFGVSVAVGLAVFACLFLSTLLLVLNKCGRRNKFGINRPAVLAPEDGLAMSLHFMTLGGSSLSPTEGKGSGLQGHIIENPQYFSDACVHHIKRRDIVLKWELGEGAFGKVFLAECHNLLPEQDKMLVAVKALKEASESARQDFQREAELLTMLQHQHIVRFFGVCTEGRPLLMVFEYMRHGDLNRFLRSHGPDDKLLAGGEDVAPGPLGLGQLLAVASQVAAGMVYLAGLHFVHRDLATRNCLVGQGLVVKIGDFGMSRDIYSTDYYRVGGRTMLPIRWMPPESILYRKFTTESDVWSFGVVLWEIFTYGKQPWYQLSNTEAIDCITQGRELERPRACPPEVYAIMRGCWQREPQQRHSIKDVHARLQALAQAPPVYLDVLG
T8 sequence (P04629 with tags, fused parts or gaps): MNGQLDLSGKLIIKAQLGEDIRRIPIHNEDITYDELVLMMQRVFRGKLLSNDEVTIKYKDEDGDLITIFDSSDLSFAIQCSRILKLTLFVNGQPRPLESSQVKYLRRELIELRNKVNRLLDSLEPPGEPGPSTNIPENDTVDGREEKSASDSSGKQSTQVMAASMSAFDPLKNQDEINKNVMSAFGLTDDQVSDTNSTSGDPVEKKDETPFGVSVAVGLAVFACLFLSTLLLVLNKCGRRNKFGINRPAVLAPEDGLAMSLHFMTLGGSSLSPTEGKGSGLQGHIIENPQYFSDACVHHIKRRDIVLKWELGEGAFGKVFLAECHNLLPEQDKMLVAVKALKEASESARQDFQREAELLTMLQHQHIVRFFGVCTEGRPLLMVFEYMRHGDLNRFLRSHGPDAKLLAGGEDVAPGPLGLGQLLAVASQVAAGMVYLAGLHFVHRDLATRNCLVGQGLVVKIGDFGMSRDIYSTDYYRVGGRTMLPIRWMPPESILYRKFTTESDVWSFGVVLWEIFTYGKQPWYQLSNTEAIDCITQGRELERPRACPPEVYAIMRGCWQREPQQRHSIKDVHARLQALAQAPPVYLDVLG
T2 sequence (P04629 510-796 limits assumed): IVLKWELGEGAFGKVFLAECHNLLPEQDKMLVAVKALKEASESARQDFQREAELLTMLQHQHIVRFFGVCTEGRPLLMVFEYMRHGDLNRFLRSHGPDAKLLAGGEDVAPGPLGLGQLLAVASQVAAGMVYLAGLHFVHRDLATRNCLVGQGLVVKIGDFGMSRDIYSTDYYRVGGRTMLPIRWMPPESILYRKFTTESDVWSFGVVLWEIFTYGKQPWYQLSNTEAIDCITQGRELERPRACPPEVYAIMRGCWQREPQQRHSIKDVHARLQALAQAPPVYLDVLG
T9 sequence (P04629 510-796 limits assumed): as above
T3 sequence (P04629 33-796 G667C): as the sequence (P04629 33-796 A608D) above, with D576A, G635C counted along it
T1 sequence (Q16288 32-839 L686M): as the sequence (Q16288 32-839 G696A) above, with L655M, A665G counted along it
T7 sequence (P04629 33-796 L657M): as the sequence (P04629 33-796 A608D) above, with D576A, L625M counted along it
T4 sequence (P04629 33-796 G667S): as the sequence (P04629 33-796 A608D) above, with D576A, G635S counted along it

On to `CC1(COc2ccc3c(c2)ncn3-c2ccc3cccc(N4CCC(N)CC4)c3n2)COC1` [crenolanib besylate, Crenolanib Besylate], for which the IC50 (commonly the concentration at which inhibition is half-maximal) against TRKC-L686M is 184 nM; against TRKA-TPR, 3.98 nM; against TRKA-G667C it was 5 nM; against TRKA-G667S, 4.52 nM; against TRKA-A608D it was 38.7 nM; on TRKC-G696A it was 5.69 nM. Besides, the IC50 at TRKA-L657M was found to be 79.7 nM; at TRKA-TFG it was 3.95 nM; at TRKA-TPM3, 4.34 nM.
As to `O=C(Nc1cnn2ccc(N3CCC[C@@H]3c3cc(F)ccc3F)nc12)N1CC[C@H](O)C1` [Larotrectinib], in experiment [1] (assessed patients), the “clinical response in assessed patients” value is 75%. The “patients progressed within 1 year” value in experiment [1] (within 1 year) is reported as 45%.
